Read-outs that look alike come from different tables or passages of the source. Bounds are passed on as bounds.

As a reminder, the Ki is the dissociation constant of the complex between target and ligand, obtained from inhibition or displacement. Broadly, the Km is the concentration of substrate that gives half-maximal velocity.

In test [1] the test system is BaIMPDHΔL. The class given is biochemical, Bacillus anthracis.
Test [2] has as its target BaIMPDHΔL. The test is classed as biochemical, Bacillus anthracis. This is another data set of the same source.

Take `NC(=O)c1ccc[n+]([C@@H]2O[C@H](COP(=O)([O-])OP(=O)(O)OC[C@H]3O[C@@H](n4cnc5c(N)ncnc54)[C@H](O)[C@@H]3O)[C@@H](O)[C@H]2O)c1` [NAD^+]: in the test with BaIMPDHΔL [1], the k2 was determined as 31800 M⁻¹ s⁻¹, the “k−2” value was 10.9 s⁻¹, the “k−7” value is 566000 s⁻¹ and the “lower limit of k−7 (substrate inhibition by NAD+)” value is over 4000 M⁻¹ s⁻¹. Also, the Ki on BaIMPDHΔL [1] (read-out: Ki(B), predicted) was 6610 µM. Also, the Km in the test with BaIMPDHΔL [1] (read-out: Km(B), predicted) was 415 µM. Also, the Kd on BaIMPDHΔL [1] (read-out: dissociation equilibrium constant k−7/k7 (substrate inhibition by NAD+)) was about 5500 µM. Besides, at BaIMPDHΔL [2] (read-out: Ki(B), observed ± std.err.), the inhibition constant (Ki) was found to be 7400 ± 400 µM. Also, the Km in the test with BaIMPDHΔL [2] (read-out: Km(B), observed ± std.err.) worked out at 460 ± 20 µM.

For `NC(=O)C1=CN([C@@H]2O[C@H](COP(=O)(O)OP(=O)(O)OC[C@H]3O[C@@H](n4cnc5c(N)ncnc54)[C@H](O)[C@@H]3O)[C@@H](O)[C@H]2O)C=CC1` [NADH], the “lower limit of k4 (NADH rebinding)” value in the test on BaIMPDHΔL [1] was over 2e+06 M⁻¹ s⁻¹. For the same compound, the Ki on BaIMPDHΔL [1] (read-out: Ki(Q), predicted) was 301 µM; at BaIMPDHΔL [1] (read-out: Ki(Q,B), predicted), 87.2 µM; at BaIMPDHΔL [2] (read-out: Ki(Q), observed ± std.err.) it was 620 ± 360 µM; at BaIMPDHΔL [2] (read-out: Ki(Q,B), observed ± std.err.), 97 ± 9 µM.

Source of the values: publication PMC5524190 (Biochemistry, 2016).
